# Reference: patent publication US5798375A, “Treatment of arteriosclerosis and xanthoma” (Sankyo Company, Limited, priority 1995, dated 1998)
# Columns and labels:
# [1] = Example 2: serum cholesterol in WHHL rabbits; assay type: in vivo, Male WHHL rabbits; details: Groups C and D (pioglitazone 20 mg/kg; Compound A 10 mg/kg)
# Procedure: (§1) Each test compound was administered for eight months to the rabbits in the form of an aqueous suspension (0.5% carboxymethylcellulose added). In the control group, a 0.5% carboxymethylcellulose solution only was administered.
# WHHL rabbits [2] = assay: Example 2: percentage area covered by lesions, aortic arch and whole aorta; assay type: in vivo, Male WHHL rabbits; parameters: Lesion Area, Aortic Arch, percentage against the control group / Lesion Area, Total Aorta, percentage against the control group: concentration or dose not given beside the values; details: oral, eight months
# Procedure: as §1
# The values actually measured are represented by the mean value plus or minus standard error. The numbers in parentheses represent the percentage lesion area against the control group.
# *p<0.05, **p<0.01; significant difference against the control group under the [Mann-Whitney's U-Test A significant difference (p<0.05) was observed between Groups B and F, between Groups C and E and between Groups D and F at the aortic arch, and between Groups C and E over the total aorta.
# WHHL rabbits [3] = assay: Example 2: average thickening of intima in aorta; assay type: in vivo, Male WHHL rabbits; parameters: Average thickening of intima, Aortic Arch, percentage against the control group / Average thickening of intima, Total Aorta, percentage against the control group: concentration or dose not given beside the values
# Procedure: as §1
# The values actually measured are represented as the mean value plus or minus a standard error (μm). The numbers in parentheses represent the percentage intimal thickening against the control group. A significant difference was observed between Groups D and F at the aortic arch, and between Groups C and E and between Groups D and F over the total aorta (p<0.05) under the Mann-Whitney's U-Test.
# The average thickening of the intima is calculated by the cross-sectional area of the aortic tunica intima one section from the arch and two sections from the thoracic and abdominal portions, divided by the length of the tunica media.
# WHHL rabbits [4] = assay: Example 2: aortic cholesterol content; assay type: in vivo, Male WHHL rabbits
# Procedure: as §1
# The aortic cholesterol content was measured The tunica media and tunica intima at the aortic arch and at the thoracic and abdominal aorta were peeled away with tweezers and cut into pieces. The pieces were extracted with a 2:1 by volume mixture of chloroform and methanol.
# The chloroform phase was separated and evaporated to dryness and the residue was dissolved in isopropanol. The total cholesterol and the free cholesterol were measured by a conventional enzymatic method.
# Data are expressed by the mean plus or minus standard error (mg/g tissue). The values in parentheses indicate the percentage against the control. A significant difference against the control group was observed by the unpaired student t-test: […]
# WHHL rabbits [5] = assay: Example 2: incidence and degree of xanthoma of the four legs; assay type: in vivo, Male WHHL rabbits; parameters: Frequency of massive xanthoma: unit not given here
# Procedure: as §1
# The incidence and the degree of xanthoma of the four legs were measured.
# [6] = system: Male New Zealand white rabbits; assay: Example 3: regression of established atherosclerotic lesions in the cholesterol-fed rabbit model; assay type: in vivo
# Procedure: The rabbits were grouped randomly (3-9 animals per group) and the test samples were administered orally for two months, while they were fed with a normolipidaemic diet. […] The results are shown in terms of the percentage of lesion area in the thoracic aorta.
# diabetic animal model = details: in vivo in a diabetic animal model; cited from earlier work
# [7] = oral, eight months, control 100 (14/14), *p < 0.05, **p < 0.01 vs control
smiles,measurement,setting,value
"CC(=NOCCOc1ccc(CC2SC(=O)NC2=O)cc1)c1ccc(-c2ccccn2)cc1 (stereo not shown) [Compound A, 5-(4-{2-[1-(4-2'-pyridyl-phenyl)ethylideneaminooxy]ethoxy}benzyl)thiazolidine-2,4-dione]",reduction of the serum cholesterol levels,[1],no reduction
same,"Lesion Area, Aortic Arch, percentage against the control group",WHHL rabbits [2]; number in parentheses,77%
same,"Lesion Area, Total Aorta, percentage against the control group",WHHL rabbits [2]; number in parentheses,76%
same,"Lesion Area, Total Aorta","WHHL rabbits [2]; pravastatin 50, pioglitazone 20, Compound A 10 mg/kg, mean ± standard error, *p<0.05, **p<0.01 vs control",38 ± 8%
same,"Lesion Area, Aortic Arch","WHHL rabbits [2]; pravastatin 50, pioglitazone 20, Compound A 10 mg/kg, mean ± standard error, control 82 ± 5, *p<0.05, **p<0.01 vs control",63 ± 9%
same,suppression of intimal thickening,WHHL rabbits [3]; combinations compared with Groups C and D,no suppression of hypertrophy
same,"Average thickening of intima, Aortic Arch, percentage against the control group",WHHL rabbits [3]; number in parentheses,123%
same,"Average thickening of intima, Total Aorta, percentage against the control group",WHHL rabbits [3]; number in parentheses,105%
same,"Average thickening of intima in aorta, Total Aorta","WHHL rabbits [3]; oral, eight months, pravastatin 50, pioglitazone 20, Compound A 10 mg/kg, mean ± standard error, control 154 ± 33",162 ± 22 μm
same,"Average thickening of intima in aorta, Aortic Arch","WHHL rabbits [3]; oral, eight months, pravastatin 50, pioglitazone 20, Compound A 10 mg/kg, mean ± standard error, control 237 ± 63",291 ± 51 μm
same,"Cholesterol level of Thoracic and Abdominal Aorta, Esterified","WHHL rabbits [4]; mean ± standard error, control 5.3 ± 1.7",4.9 ± 0.9 mg/g tissue
same,"Cholesterol Content of Aortic Arch, Esterified","WHHL rabbits [4]; mean ± standard error, control 6.5 ± 1.4, *p < 0.05",4.5 ± 1.3 mg/g tissue
same,"Cholesterol level of Thoracic and Abdominal Aorta, Free","WHHL rabbits [4]; mean ± standard error, control 14.8 ± 2.3, *p < 0.05 vs control",9.2 ± 1.0 mg/g tissue
same,"Cholesterol level of Thoracic and Abdominal Aorta, Total","WHHL rabbits [4]; mean ± standard error, control 20.1 ± 2.3, *p < 0.05, **p < 0.02 vs control",14.0 ± 1.7 mg/g tissue
same,"Cholesterol Content of Aortic Arch, Free","WHHL rabbits [4]; mean ± standard error, control 20.6 ± 2.9",16.9 ± 1.8 mg/g tissue
same,"Cholesterol Content of Aortic Arch, Total","WHHL rabbits [4]; mean ± standard error, control 27.1 ± 3.3",21.4 ± 0.7 mg/g tissue
same,"Cholesterol Content of Aortic Arch, Esterified, percentage against the control",WHHL rabbits [4]; number in parentheses,69%
same,"Cholesterol Content of Aortic Arch, Free, percentage against the control",WHHL rabbits [4]; number in parentheses,82%
same,"Cholesterol Content of Aortic Arch, Total, percentage against the control",WHHL rabbits [4]; number in parentheses,79%
same,"Cholesterol level of Thoracic and Abdominal Aorta, Esterified, percentage against the control",WHHL rabbits [4]; number in parentheses,92%
same,"Cholesterol level of Thoracic and Abdominal Aorta, Free, percentage against the control",WHHL rabbits [4]; number in parentheses,62%
same,"Cholesterol level of Thoracic and Abdominal Aorta, Total, percentage against the control",WHHL rabbits [4]; number in parentheses,70%
same,Frequency of massive xanthoma,"WHHL rabbits [5]; control 57, *p < 0.05, **p < 0.01 vs control",21
same,incidence of xanthoma,WHHL rabbits [5]; forelegs and hindlegs,slightly less frequent incidence of xanthoma
same,Distribution of severity of lesion: (-) no lesions,"WHHL rabbits [5]; number of legs, control 0",3
same,Distribution of severity of lesion: (+++) severe lesion,"WHHL rabbits [5]; number of legs, control 6",0
same,Distribution of severity of lesion: (++) moderate lesion,"WHHL rabbits [5]; number of legs, control 10",6
same,Distribution of severity of lesion: (+) slight lesion,"WHHL rabbits [5]; number of legs, control 12",19
same,"Incidence of xanthoma, Forelegs",WHHL rabbits [5]; [7],93%
same,"Incidence of xanthoma, Hindlegs",WHHL rabbits [5]; [7],86%
same,"Incidence of xanthoma, Total","WHHL rabbits [5]; oral, eight months, control 100 (28/28), *p < 0.05, **p < 0.01 vs control",89%
same,"Rate of lesion area, against the control group","[6]; 2.5 mg/kg, figure in parentheses",93
same,Rate of lesion area,"[6]; thoracic aorta, 2.5 mg/kg oral, two months, mean ± standard error, control 29 ± 20",27 ± 7%
"CN(CCOc1ccc(CC2SC(=O)NC2=O)cc1)c1ccccn1 (stereo not shown) [BRL-49653, 5-{4-[2-methyl-2-(pyridin-2-ylamino)ethoxy]benzyl}-2,4-thiazolidinedione]",potency higher than that of troglitazone,diabetic animal model,about 100 times
